Reference: ChEMBL document CHEMBL1806405, “Internalization of a C17α-alkynylestradiol-porphyrin conjugate into estrogen receptor positive MCF-7 breast cancer cells” (Bioorg Med Chem Lett, 2011)
Calls of active or inactive are those of the source. The rule behind the calls is not given here.

Target: T1, Estrogen receptor (Homo sapiens) (UniProt P03372)
T1 sequence (whole entry): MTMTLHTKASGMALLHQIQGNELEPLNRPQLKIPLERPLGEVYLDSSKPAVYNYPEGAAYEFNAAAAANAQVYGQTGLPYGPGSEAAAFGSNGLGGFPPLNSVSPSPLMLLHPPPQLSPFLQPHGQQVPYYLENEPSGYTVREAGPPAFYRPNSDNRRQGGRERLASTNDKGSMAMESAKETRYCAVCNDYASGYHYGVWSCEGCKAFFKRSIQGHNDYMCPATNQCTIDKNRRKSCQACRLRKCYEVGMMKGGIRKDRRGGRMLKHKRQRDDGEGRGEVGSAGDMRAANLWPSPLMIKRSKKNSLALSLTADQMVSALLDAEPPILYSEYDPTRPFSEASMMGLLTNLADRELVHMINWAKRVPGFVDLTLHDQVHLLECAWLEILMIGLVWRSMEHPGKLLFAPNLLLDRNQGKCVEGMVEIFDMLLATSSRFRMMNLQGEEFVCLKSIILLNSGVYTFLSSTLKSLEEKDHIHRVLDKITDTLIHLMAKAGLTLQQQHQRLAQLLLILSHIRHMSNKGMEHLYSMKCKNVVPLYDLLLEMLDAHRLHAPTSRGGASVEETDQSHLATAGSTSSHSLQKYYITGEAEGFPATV
Experiment: Induction of estrogen receptor-mediated compound internalization in human MCF-7 cells at 10 umol by fluorescence microscopy
Assay type: cell-based
Settings: MCF7

Activity | Structure (SMILES)
Active | C=CC1=C(C)c2cc3[nH]c(c4c5nc(cc6[nH]c(cc1n2)c(C)c6CC)C(C)=C5C(=O)C4)[C@@H](CCC(=O)OCCC#C[C@]1(O)CC[C@H]2[C@@H]4CCc5cc(O)ccc5[C@H]4CC[C@@]21C)[C@@H]3C
inactive | C=CC1=C(C)c2cc3[nH]c(c4c5nc(cc6[nH]c(cc1n2)c(C)c6CC)C(C)=C5C(=O)C4)[C@@H](CCC(=O)O)[C@@H]3C
